Assays:
Format in all cases: in vivo
PDX mouse models of TNBC = assay: Antitumor effects across the panel of 40 PDX mouse models of TNBC; settings: range across PDX TNBC models of Table 4
Excerpt: Establish PDX tumor models from viable human tumor tissue and serially passage in immunocompromised female mice a limited number of times. Using tumor fragments harvested from donor host animals, perform unilateral subcutaneous implants from a specific passage of the PDX tumor model on the flanks of the experimental animals. When tumor volumes reach approximately 150-250 mm^3 in size, randomize the animals by treatment arm by randomization techniques well known in the art and place into their respective treatment groups using 1 animal per treatment group (3 animals in an untreated group). […]
Capture tumor size and body weight twice per week. Estimate tumor volume (V) by using the formula: V=(π/6)×L×W^2 where L=larger of measured diameter and W=smaller perpendicular diameter. Calculate relative tumor volume using the tumor volume measurement taken nearest to the last day of dosing for each animal (T), divided by the baseline tumor volume for that animal (T0), which is the volume recorded on or just prior to the first day of dosing, Y=T/T0. […] Tumor growth inhibition is observed in those instances where the calculated values for % ΔT/ΔC are less than 100% whereby greater inhibition results in smaller % ΔT/ΔC values. If ΔT<0, then a tumor regression value is calculated instead of % ΔT/ΔC whereby % Regression=100(YT−1). […]

PDX TNBC Model ST035 = assay: Antitumor effects in PDX mouse model of TNBC; settings: A 10 mg/kg SC BID 3 days on/4 off ×4, B 7.5 mg/kg PO BID×28, versus vehicle
Excerpt: (§1) Establish PDX tumor models from viable human tumor tissue and serially passage in immunocompromised female mice a limited number of times. Using tumor fragments harvested from donor host animals, perform unilateral subcutaneous implants from a specific passage of the PDX tumor model on the flanks of the experimental animals. When tumor volumes reach approximately 150-250 mm^3 in size, randomize the animals by treatment arm by randomization techniques well known in the art and place into their respective treatment groups using 1 animal per treatment group (3 animals in an untreated group). Formulate CHK1 inhibitor, 5-(5-(2-(3-aminopropoxy)-6-methoxyphenyl)-1H-pyrazol-3-ylamino)pyrazine-2-carbonitrile methanesulfonate hydrate, (Compound A) every 14 days in 20% captisol (dissolved in water) and administer subcutaneously twice daily at a dose of 10 mg/kg on days 1/2/3 of a weekly cycle for 4 weeks (SC, BID [3 days on/4 off]×4). Formulate the PI3K/mTOR dual inhibitor, 8-[5-(1-hydroxy-1-methylethyl)pyridin-3-yl]-1-[(2S)-2-methoxypropyl]-3-methyl-1,3-dihydro-2H-imidazo[4,5-c]quinolin-2-one, (Compound B) weekly in 1% (HEC)/0.25% Tween 80 (Polysorbate 80)/0.05% Dow-Corning Antifoam 1510-US and administer by oral gavage twice-daily for 28 days (PO, BID×28) at a dose of 7.5 mg/kg. Dose combination treatment animals with both compounds according to the schedule described above for monotherapy, and dose vehicle treatment animals with vehicle according to the schedule for Compound B.
(§2) Test the combination of Compound A and Compound B, as well as their respective monotherapies, in 40 PDX models (Table 1) of TNBC. Assess antitumor efficacy of the treatment groups by measuring tumor volume via caliper measurements twice a week during the course of the study. Measure body weight twice weekly during the course of the study as a general indicator of tolerability.
(§3) Capture tumor size and body weight twice per week. Estimate tumor volume (V) by using the formula: V=(π/6)×L×W^2 where L=larger of measured diameter and W=smaller perpendicular diameter. Calculate relative tumor volume using the tumor volume measurement taken nearest to the last day of dosing for each animal (T), divided by the baseline tumor volume for that animal (T0), which is the volume recorded on or just prior to the first day of dosing, Y=T/T0. Calculate % ΔT/ΔC values using the formula % ΔT/ΔC=100(YT−1)/(YC−1), whereby YT or YC=geometric mean relative volume of the compound treated group or the control group, respectively. Tumor growth inhibition is observed in those instances where the calculated values for % ΔT/ΔC are less than 100% whereby greater inhibition results in smaller % ΔT/ΔC values. If ΔT<0, then a tumor regression value is calculated instead of % ΔT/ΔC whereby % Regression=100(YT−1). Note that negative values indicate regression. We collectively refer to % ΔT/ΔC and % Regression as % Response.
(§4) Examine relative tumor volume (final volume divided by baseline volume) on the last day of treatment or the last day on which data from all three treatment groups and vehicle is available, if it is earlier than the last day of treatment and at least 14 days after baseline. Expected additive relative volume is determined using the Bliss method (Bliss, C. I., Ann Appl Biol, 1939; 26(3):585-615). Specifically, denoting Y=relative volume, YExp=(Y1*Y2)/YV, where YExp=expected additive relative volume, Y1 and Y2 are the relative volumes in the single agent groups (Compound A and Compound B), and YV is the relative volume in the vehicle group. A range of additivity is defined around the expected additive relative volume via upper and lower limits as follows:
(§5) Yupper=max(2*YExp,YExp+0.2)
(§6) Ylower=min(YExp/2,YExp−0.2)
(§7) The upper limit of the range is the larger of 2-fold above or 20% above the expected additive relative volume, and the lower limit is the smaller of 2-fold below or 20% below the expected additive relative volume. […]

PDX TNBC Model ST821 = assay: Antitumor effects in PDX mouse model of TNBC; settings: A 10 mg/kg SC BID 3 days on/4 off ×4, B 7.5 mg/kg PO BID×28, versus vehicle
Excerpt: as §1, §2, §3, §4, §5, §6, §7

PDX TNBC Model ST231 = assay: Antitumor effects in PDX mouse model of TNBC; settings: A 10 mg/kg SC BID 3 days on/4 off ×4, B 7.5 mg/kg PO BID×28, versus vehicle
Excerpt: as §1, §2, §3, §4, §5, §6, §7

PDX TNBC Model CTG-1242 = assay: Antitumor effects in PDX mouse model of TNBC; settings: PDX model CTG-1242; A 10 mg/kg SC BID 3 days on/4 off ×4; B 7.5 mg/kg PO BID×28; versus vehicle
Excerpt: as §1, §2, §3, §4, §5, §6, §7

PDX TNBC Model MAXF 449 = assay: Antitumor effects in PDX mouse model of TNBC; settings: PDX model MAXF 449; A 10 mg/kg SC BID 3 days on/4 off ×4; B 7.5 mg/kg PO BID×28; versus vehicle
Excerpt: as §1, §2, §3, §4, §5, §6, §7

PDX TNBC Model ST996 = assay: Antitumor effects in PDX mouse model of TNBC; settings: A 10 mg/kg SC BID 3 days on/4 off ×4, B 7.5 mg/kg PO BID×28, versus vehicle
Excerpt: as §1, §2, §3, §4, §5, §6, §7

PDX TNBC Model CTG-1106 = assay: Antitumor effects in PDX mouse model of TNBC; settings: PDX model CTG-1106; A 10 mg/kg SC BID 3 days on/4 off ×4; B 7.5 mg/kg PO BID×28; versus vehicle
Excerpt: as §1, §2, §3, §4, §5, §6, §7

PDX TNBC Model ST575 = assay: Antitumor effects in PDX mouse model of TNBC; settings: A 10 mg/kg SC BID 3 days on/4 off ×4, B 7.5 mg/kg PO BID×28, versus vehicle
Excerpt: as §1, §2, §3, §4, §5, §6, §7

PDX TNBC Model ST2057 = assay: Antitumor effects in PDX mouse model of TNBC; settings: A 10 mg/kg SC BID 3 days on/4 off ×4, B 7.5 mg/kg PO BID×28, versus vehicle
Excerpt: as §1, §2, §3, §4, §5, §6, §7

PDX TNBC Model MAXF 857 = assay: Antitumor effects in PDX mouse model of TNBC; settings: PDX model MAXF 857; A 10 mg/kg SC BID 3 days on/4 off ×4; B 7.5 mg/kg PO BID×28; versus vehicle
Excerpt: as §1, §2, §3, §4, §5, §6, §7

PDX TNBC Model CTG-1453 = assay: Antitumor effects in PDX mouse model of TNBC; settings: PDX model CTG-1453; A 10 mg/kg SC BID 3 days on/4 off ×4; B 7.5 mg/kg PO BID×28; versus vehicle
Excerpt: as §1, §2, §3, §4, §5, §6, §7

PDX TNBC Model CTG-1019 = assay: Antitumor effects in PDX mouse model of TNBC; settings: PDX model CTG-1019; A 10 mg/kg SC BID 3 days on/4 off ×4; B 7.5 mg/kg PO BID×28; versus vehicle
Excerpt: as §1, §2, §3, §4, §5, §6, §7

PDX TNBC Model MAXF 574 = assay: Antitumor effects in PDX mouse model of TNBC; settings: PDX model MAXF 574; A 10 mg/kg SC BID 3 days on/4 off ×4; B 7.5 mg/kg PO BID×28; versus vehicle
Excerpt: as §1, §2, §3, §4, §5, §6, §7

CO[C@@H](C)Cn1c(=O)n(C)c2cnc3ccc(-c4cncc(C(C)(C)O)c4)cc3c21 [Compound B, 8-[5-(1-hydroxy-1-methylethyl)pyridin-3-yl]-1-[(2S)-2-methoxypropyl]-3-methyl-1,3-dihydro-2H-imidazo[4,5-c]quinolin-2-one]
efficacy values, % response, range over the models (PDX mouse models of TNBC): 163% to −31
% Rsp. (% ΔT/ΔC or % Regression) (PDX TNBC Model ST035): 54.0%
% Rsp. (% ΔT/ΔC or % Regression) (PDX TNBC Model ST821): 78.5%
% Rsp. (% ΔT/ΔC or % Regression) (PDX TNBC Model ST231): 76.8%
% Rsp. (% ΔT/ΔC or % Regression) (PDX TNBC Model CTG-1242): 107.3%
% Rsp. (% ΔT/ΔC or % Regression) (PDX TNBC Model MAXF 449): 34.7%
% Rsp. (% ΔT/ΔC or % Regression) (PDX TNBC Model ST996): 23.5%
% Rsp. (% ΔT/ΔC or % Regression) (PDX TNBC Model CTG-1106): −31.0%
% Rsp. (% ΔT/ΔC or % Regression) (PDX TNBC Model ST575): 51.3%
% Rsp. (% ΔT/ΔC or % Regression) (PDX TNBC Model ST2057): 26.9%
% Rsp. (% ΔT/ΔC or % Regression) (PDX TNBC Model MAXF 857): 72.7%
% Rsp. (% ΔT/ΔC or % Regression) (PDX TNBC Model CTG-1453): −6.9%
% Rsp. (% ΔT/ΔC or % Regression) (PDX TNBC Model CTG-1019): 158.0%
% Rsp. (% ΔT/ΔC or % Regression) (PDX TNBC Model MAXF 574): 59.4%

COc1cccc(OCCCN)c1-c1cc(Nc2cnc(C#N)cn2)n[nH]1.CS(=O)(=O)O [Compound A, 5-(5-(2-(3-aminopropoxy)-6-methoxyphenyl)-1H-pyrazol-3-ylamino)pyrazine-2-carbonitrile methanesulfonate hydrate]
efficacy values, % response, range over the models (PDX mouse models of TNBC): 126.1% to −100
% Rsp. (% ΔT/ΔC or % Regression) (PDX TNBC Model ST035): 2.1%
% Rsp. (% ΔT/ΔC or % Regression) (PDX TNBC Model ST821): −81.9%
% Rsp. (% ΔT/ΔC or % Regression) (PDX TNBC Model ST231): −74.6%
% Rsp. (% ΔT/ΔC or % Regression) (PDX TNBC Model CTG-1242): 66.8%
% Rsp. (% ΔT/ΔC or % Regression) (PDX TNBC Model MAXF 449): −100.0%
% Rsp. (% ΔT/ΔC or % Regression) (PDX TNBC Model ST996): 0.7%
% Rsp. (% ΔT/ΔC or % Regression) (PDX TNBC Model CTG-1106): −39.0%
% Rsp. (% ΔT/ΔC or % Regression) (PDX TNBC Model ST575): −87.5%
% Rsp. (% ΔT/ΔC or % Regression) (PDX TNBC Model ST2057): 44.8%
% Rsp. (% ΔT/ΔC or % Regression) (PDX TNBC Model MAXF 857): 32.4%
% Rsp. (% ΔT/ΔC or % Regression) (PDX TNBC Model CTG-1453): 2.3%
% Rsp. (% ΔT/ΔC or % Regression) (PDX TNBC Model CTG-1019): 86.6%
% Rsp. (% ΔT/ΔC or % Regression) (PDX TNBC Model MAXF 574): 22.9%

— patent US20180228795A1, “COMBINATION THERAPY FOR CANCER” (Eli Lilly and Company, priority 2015, published 2018)
